The text below walks through data of US8969388B1, “Substituted pyrazolone compounds and methods of use” (Calitor Sciences, LLC, priority 2012, dated 2015).

Series [1] in a line: Compound stability in human liver microsomes. Particulars: pH 7.4; for half-life at 5 μM: human liver microsomes 0.5 mg protein/mL, compound 5 μM, NADPH, 37° C., read-out: Human T1/2; for CLint scaled at 5 μM: human liver microsomes, in vivo CLint extrapolated. It counts as in vitro ADME. The method, then:
(§1) Human or rat liver microsomes incubations were conducted in duplicate in polypropylene tubes. The typical incubation mixtures consisted of human liver microsomes (0.5 mg protein/mL), compounds of interest (5 μM) and NADPH (1.0 mM) in a total volume of 200 μL potassium phosphate buffer (PBS, 100 mM, pH 7.4). Compounds were dissolved in DMSO and diluted with PBS such that the final concentration of DMSO was 0.05%. The enzymatic reactions were commenced with the addition of protein after a 3-min preincubation and incubated in a water bath open to the air at 37° C. Reactions were terminated at various time points (0, 5, 10, 15, 30, 60 min) by adding equal volume of ice-cold acetonitrile. The samples were stored at −80° C. until LC/MS/MS assays.
(§2) The concentrations of compounds in the incubation mixtures of human liver microsomes were determined by a LC/MS/MS method. The ranges of the linearity in the concentration range were determined for each tested compounds.
(§3) A parallel incubation was performed using denatured microsomes as the negative control, and reactions were terminated at various time points (0, 15, 60 min) after incubation at 37° C.
(§4) Dextromethorphan (70 μM) was selected as the positive control, and reactions were terminated at various time points (0, 5, 10, 15, 30, 60 min) after incubation at 37° C. Both positive and negative control samples were included in each assay to ensure the integrity of the microsomal incubation system.
(§5) The concentrations of compounds in human liver microsome incubations were plotted as a percentage of the relevant zero time point control for each reaction. The in vivo CLint were extrapolated (ref: Naritomi Y, Terashita S, Kimura S, Suzuki A, Kagayama A, Sugiyama Y. Prediction of human hepatic clearance from in vivo animal experiments and in vitro metabolic studies with liver microsomes from animals and humans. Drug Metabolism and Disposition 2001, 29: 1316-1324.)

Series [2] is described as follows: Compound stability in rat liver microsomes. Type of series: in vitro ADME. The note with it: for half-life at 5 μM: pH 7.4, compound 5 μM, NADPH, 37° C., read-out: Rat T1/2; for CLint scaled at 5 μM: pH 7.4, in vivo CLint extrapolated. The method, then:
as §1, §2, §3, §4, §5

A short description of series [3]: Pharmacokinetics after intravenous and oral administration in rats. Particulars: for F: oral bioavailability, oral dose not given; for AUC(0-t) / half-life / Vd: rat, plasma; for clearance (CL) after iv dosing / AUC(0-t) / half-life / Vd: iv dosing; for Vd: read-out: Vss. It counts as in vivo. The method, then: The compounds disclosed herein are assessed in pharmacokinetic studies in mice, rats, dogs or monkeys. The compounds are administered as a water solution, 2% HPMC+1% TWEEN®80 in water solution, 5% DMSO+5% solutol in saline, 4% MC suspension or capsule. For the intravenous administration, the animals are generally given at 1 or 2 mg/kg dose. For the oral (p.o.) dosing, mice and rats are generally given 5 or 10 mg/kg dose, and dogs and monkeys are generally given 10 mg/kg dose. The blood samples (0.3 mL) are drawn at 0.25, 0.5, 1.0, 2.0, 3.0, 4.0, 6.0, 8.0, 12 and 24 h time points or 0.083, 0.25, 0.5, 1.0, 2.0, 4.0, 6.0, 8.0 and 24 h time points and centrifuged at 3,000 or 4000 rpm for 2 to 10 min. The plasma solutions are collected, stored at −20° C. or −70° C. until analyzed by LC/MS/MS as described above.

Series [4] addresses T1, KDR (h) (Homo sapiens, UniProt P35968).
T1 construct: host or cells: E. coli BL21-derived host (T7 phage) or HEK-293
Put plainly: KINOMEscan competition binding assay, KDR (h). How it is done:
(§6) Alternatively, the kinase activities of the compounds can be measured using KINOMEscan™, which is based on a competition binding assay that quantitatively measures the ability of a compound to compete with an immobilized, active-site directed ligand. The assay was performed by combining three components: DNA-tagged kinase; immobilized ligand; and a test compound. The ability of the test compound to compete with the immobilized ligand was measured via quantitative PCR of the DNA tag.
(§7) For most assays, kinase-tagged T7 phage strains were prepared in an E. coli host derived from the BL21 strain. E. coli were grown to log-phase and infected with T7 phage and incubated with shaking at 32° C. until lysis. The lysates were centrifuged and filtered to remove cell debris. The remaining kinases were produced in HEK-293 cells and subsequently tagged with DNA for qPCR detection. Streptavidin-coated magnetic beads were treated with biotinylated small molecule ligands for 30 minutes at room temperature to generate affinity resins for kinase assays. The liganded beads were blocked with excess biotin and washed with blocking buffer (SEABLOCK™ (Pierce), 1% BSA, 0.05% TWEEN®20, 1 mM DTT) to remove unbound ligand and to reduce nonspecific binding. Binding reactions were assembled by combining kinases, liganded affinity beads, and test compounds in 1× binding buffer (20% SEABLOCK™, 0.17×PBS, 0.05% TWEEN®20, 6 mM DTT). All reactions were performed in polystyrene 96-well plates in a final volume of 0.135 mL. The assay plates were incubated at room temperature with shaking for 1 hour and the affinity beads were washed with wash buffer (1×PBS, 0.05% TWEEN®20). The beads were then re-suspended in elution buffer (1×PBS, 0.05% TWEEN®20, 0.5 μM non-biotinylated affinity ligand) and incubated at room temperature with shaking for 30 minutes. The kinase concentration in the eluates was measured by qPCR.
(§8) The kinase assays described herein were performed using KINOMEscan™ Profiling Service at DiscoveRx Corporation, 42501 Albrae St. Fremont, Calif.

Series [5] concerns the target T2, c-Met (h) (Homo sapiens, UniProt P08581).
T2 construct: host or cells: E. coli BL21-derived host (T7 phage) or HEK-293
Briefly: KINOMEscan competition binding assay, c-Met (h). The method, then: as §6, §7, §8

Series [6] deals with U87MG glioblastoma cells. Put plainly: U87MG tumor xenograft model, tumor growth inhibition. It counts as in vivo, athymic nude mice (BALB/cA nu/nu). Particulars: mice, oral gavage. The method, then:
The efficacy of compounds disclosed herein was evaluated in a standard murine model of tumorigenesis. Human tumor cells (U87MG glioblastoma cells from ATCC) were expended in culture, harvested, and injected subcutaneously onto the rear flank of 6-7 week old female athymic nude mice (BALB/cA nu/nu, Hunan SLAC Laboratory Animal, Co.) (n=6-10 for vehicle group and for each dosing group). When tumors reached a volume of 100-250 mm^3, animals were randomly divided into vehicle control (for example, 5% DMSO+70% Captisol® (30%), 7% HCl (pH1), 18% Captisol® (30%); or 7% DMSO, 7% HCl (pH1), 70% Captisol® (30%), 16% Captisol® (30%), or the like) and compound groups. Subsequent administration of compound by oral gavage begins anywhere from day 0 to day 15 post tumor cell challenge and generally continues with once a day for the duration of the experiment.
Progression of tumor growth is assessed by tumor volumes and recorded as a function of time. The long (L) and short (W) axes of the subcutaneous tumors were measured with calipers twice weekly, and the tumor volume (TV) calculated as (L×W^2)/2). TGI was calculated from the difference between the median tumor volumes of vehicle-treated and drug-treated mice, expressed as a percentage of the median tumor volume of the vehicle-treated control group, by the following relation:
[formula] Initial statistical analysis is done by repeated measures analysis of variance (RMANOVA), followed by Scheffe psot hoc testing for multiple comparisons. Vehicle alone (5% DMSO+70% Captisol® (30%), 7% HCl (pH1), 18% Captisol® (30%); or 7% DMSO, 7% HCl (pH1), 70% Captisol® (30%), 16% Captisol® (30%), or the like) is the negative control.

Like-named read-outs stand apart in the source and are kept apart here.

T1 sequence (P35968 20-1356): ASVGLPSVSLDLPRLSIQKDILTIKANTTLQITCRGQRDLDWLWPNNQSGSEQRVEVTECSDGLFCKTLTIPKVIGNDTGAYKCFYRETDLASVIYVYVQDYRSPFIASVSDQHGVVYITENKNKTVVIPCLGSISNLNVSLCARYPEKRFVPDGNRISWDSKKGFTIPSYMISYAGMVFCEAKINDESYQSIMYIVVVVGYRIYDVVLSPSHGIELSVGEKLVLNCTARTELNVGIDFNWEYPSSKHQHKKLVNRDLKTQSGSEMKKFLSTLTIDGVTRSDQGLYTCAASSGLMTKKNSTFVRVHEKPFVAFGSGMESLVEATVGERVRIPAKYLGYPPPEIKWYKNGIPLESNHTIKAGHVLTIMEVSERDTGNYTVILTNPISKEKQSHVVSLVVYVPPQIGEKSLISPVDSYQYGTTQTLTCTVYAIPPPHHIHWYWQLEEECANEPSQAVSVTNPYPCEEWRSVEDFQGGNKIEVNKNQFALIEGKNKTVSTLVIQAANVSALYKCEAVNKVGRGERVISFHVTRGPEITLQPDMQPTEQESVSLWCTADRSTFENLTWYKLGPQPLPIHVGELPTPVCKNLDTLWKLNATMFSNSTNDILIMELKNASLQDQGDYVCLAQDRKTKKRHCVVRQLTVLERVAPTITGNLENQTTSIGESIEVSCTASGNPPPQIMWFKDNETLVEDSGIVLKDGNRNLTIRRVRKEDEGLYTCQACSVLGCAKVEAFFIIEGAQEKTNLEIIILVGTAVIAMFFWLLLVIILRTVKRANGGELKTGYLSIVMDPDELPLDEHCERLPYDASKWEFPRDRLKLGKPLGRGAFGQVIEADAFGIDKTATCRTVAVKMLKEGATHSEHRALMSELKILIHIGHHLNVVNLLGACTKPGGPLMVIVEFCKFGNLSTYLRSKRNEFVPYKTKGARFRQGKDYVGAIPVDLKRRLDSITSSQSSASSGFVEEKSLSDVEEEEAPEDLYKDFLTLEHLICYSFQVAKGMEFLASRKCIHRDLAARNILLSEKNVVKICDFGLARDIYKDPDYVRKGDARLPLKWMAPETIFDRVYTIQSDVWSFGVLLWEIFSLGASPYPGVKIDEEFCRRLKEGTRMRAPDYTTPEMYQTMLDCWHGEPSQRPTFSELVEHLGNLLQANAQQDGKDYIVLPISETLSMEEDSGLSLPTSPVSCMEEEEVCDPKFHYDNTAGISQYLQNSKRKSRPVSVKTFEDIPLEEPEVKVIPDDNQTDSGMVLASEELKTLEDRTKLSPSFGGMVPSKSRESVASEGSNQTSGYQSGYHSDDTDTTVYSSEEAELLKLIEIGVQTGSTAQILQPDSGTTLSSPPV
T2 sequence (P08581 25-1390): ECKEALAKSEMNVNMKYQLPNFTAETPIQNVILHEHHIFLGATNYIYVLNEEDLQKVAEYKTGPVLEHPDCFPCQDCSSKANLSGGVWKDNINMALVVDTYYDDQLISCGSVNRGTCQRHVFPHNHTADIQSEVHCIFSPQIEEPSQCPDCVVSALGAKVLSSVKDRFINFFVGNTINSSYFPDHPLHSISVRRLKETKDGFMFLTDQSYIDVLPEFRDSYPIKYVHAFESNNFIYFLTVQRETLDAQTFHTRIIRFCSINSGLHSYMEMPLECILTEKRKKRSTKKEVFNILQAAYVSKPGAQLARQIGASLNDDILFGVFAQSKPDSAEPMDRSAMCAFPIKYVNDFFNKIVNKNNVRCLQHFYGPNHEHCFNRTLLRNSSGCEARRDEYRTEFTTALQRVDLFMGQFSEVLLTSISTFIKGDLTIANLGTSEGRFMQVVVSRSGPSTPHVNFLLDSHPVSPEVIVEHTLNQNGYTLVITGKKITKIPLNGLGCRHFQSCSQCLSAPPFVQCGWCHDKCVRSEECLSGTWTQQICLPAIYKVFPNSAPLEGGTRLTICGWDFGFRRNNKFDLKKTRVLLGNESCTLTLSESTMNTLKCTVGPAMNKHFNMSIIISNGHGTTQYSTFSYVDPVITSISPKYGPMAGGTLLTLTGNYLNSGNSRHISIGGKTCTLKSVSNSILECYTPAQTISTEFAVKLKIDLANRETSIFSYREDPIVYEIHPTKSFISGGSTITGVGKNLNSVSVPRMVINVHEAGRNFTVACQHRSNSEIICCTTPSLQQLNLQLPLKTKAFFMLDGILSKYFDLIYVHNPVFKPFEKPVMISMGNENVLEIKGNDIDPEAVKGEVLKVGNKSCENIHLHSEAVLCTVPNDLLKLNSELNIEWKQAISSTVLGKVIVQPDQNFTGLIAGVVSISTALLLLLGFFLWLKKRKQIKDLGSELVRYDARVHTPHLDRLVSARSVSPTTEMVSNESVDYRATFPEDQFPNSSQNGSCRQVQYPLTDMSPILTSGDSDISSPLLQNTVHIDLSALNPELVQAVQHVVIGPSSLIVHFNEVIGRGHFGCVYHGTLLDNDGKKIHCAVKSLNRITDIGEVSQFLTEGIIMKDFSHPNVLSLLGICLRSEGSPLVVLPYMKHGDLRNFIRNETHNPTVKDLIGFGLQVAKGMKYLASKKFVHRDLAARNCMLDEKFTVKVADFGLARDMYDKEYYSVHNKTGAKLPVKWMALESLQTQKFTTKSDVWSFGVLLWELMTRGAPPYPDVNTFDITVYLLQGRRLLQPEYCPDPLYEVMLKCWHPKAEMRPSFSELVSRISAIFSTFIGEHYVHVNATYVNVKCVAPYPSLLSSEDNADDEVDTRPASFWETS

For `Cc1c(C(=O)Nc2ccc(Oc3ccnc(N)c3)cc2F)c(=O)n(-c2ccccc2)n1C` [Ex. 30, N-(4-((2-aminopyridin-4-yl)oxy)-2-fluorophenyl)-1,5-dimethyl-3-oxo-2-phenyl-2,3-dihydro-1H-pyrazole-4-carboxamide], in series [1], the half-life at 5 μM came to 2.09 h and the CLint scaled at 5 μM is 13.9 mL/min/kg. Also, in series [2], the half-life at 5 μM worked out at 1.61 h and the CLint scaled at 5 μM was 25.8 mL/min/kg. Also, in series [3] (2 mg/kg), the “clearance (CL) after iv dosing” value was 22 mL/min/kg, the AUC(0-t) was found to be 1490 ng·h/mL, the half-life is 11.8 h and the Vd was 2.64 L/kg. Further, the F in series [3] (iv dose 2 mg/kg) stood at 54.4%.

Consider `Cc1c(C(=O)Nc2ccc(Oc3ccnc(NC(=O)N4CCOCC4)c3)cn2)c(=O)n(-c2ccccc2)n1C` [Ex. 18, N-(4-((6-(1,5-dimethyl-3-oxo-2-phenyl-2,3-dihydro-1H-pyrazole-4-carboxamido)pyridin-3-yl)oxy)pyridin-2-yl)morpholine-4-carboxamide], for which, in series [3] (1 mg/kg), the “clearance (CL) after iv dosing” value amounted to 4 mL/min/kg, the AUC(0-t) stood at 4290 ng·h/mL, the half-life is 1.23 h and the Vd was 0.36 L/kg. The F in series [3] (iv dose 1 mg/kg) is recorded as 77.2%. The compound also came in with a Kd in series [4] of 39 nM. The Kd in series [5] was 2.9 nM. Moreover, the “TGI % (on last day of dosing)” value in series [6] (6 mg/kg, 14 days) is 28%. In series [6] (20 mg/kg, 14 days), the “TGI % (on last day of dosing)” value was 49%. The “TGI % (on last day of dosing)” value in series [6] (60 mg/kg, 14 days) is reported as 57%.

With `Cc1c(C(=O)Nc2cc(F)c(Oc3ccnc(N)c3)cc2F)c(=O)n(-c2ccccc2)n1C` [Ex. 8, N-(4-((2-aminopyridin-4-yl)oxy)-2,5-difluorophenyl)-1,5-dimethyl-3-oxo-2-phenyl-2,3-dihydro-1H-pyrazole-4-carboxamide], in series [3] (2 mg/kg), the “clearance (CL) after iv dosing” value is 10.2 mL/min/kg, the AUC(0-t) came to 3350 ng·h/mL, the half-life is 0.82 h and the Vd worked out at 0.51 L/kg. In series [3] (iv dose 2 mg/kg), this compound yielded an F of 85.1%. In series [4], this compound gave a Kd of 1500 nM. In addition, the Kd in series [5] came to 4.8 nM. In addition, in series [6] (6 mg/kg, 14 days), the “TGI % (on last day of dosing)” value turned out to be 13%. The “TGI % (on last day of dosing)” value in series [6] (20 mg/kg, 14 days) is 25%. The “TGI % (on last day of dosing)” value in series [6] (60 mg/kg, 14 days) turned out to be 43%.

With `Cc1c(C(=O)Nc2ccc(Oc3ccnc(N)c3Cl)cc2F)c(=O)n(-c2ccccc2)n1C` [Ex. 31, N-(4-((2-amino-3-chloropyridin-4-yl)oxy)-2-fluorophenyl)-1,5-dimethyl-3-oxo-2-phenyl-2,3-dihydro-1H-pyrazole-4-carboxamide], in series [1], the half-life at 5 μM was determined as 2.44 h and the CLint scaled at 5 μM is 11.8 mL/min/kg. In series [2], the half-life at 5 μM was found to be 0.611 h and the CLint scaled at 5 μM was 67.8 mL/min/kg. Further, in series [3] (2 mg/kg), the “clearance (CL) after iv dosing” value was determined as 8.83 mL/min/kg, the AUC(0-t) was 3910 ng·h/mL, the half-life was 3.29 h and the Vd is 0.4 L/kg. In addition, the F in series [3] (iv dose 2 mg/kg) is 70.3%.

`CC(=O)Nc1cc(Oc2ccc(NC(=O)c3c(C)n(C)n(-c4ccccc4)c3=O)nc2)ccn1` [Ex. 17, N-(5-((2-acetamidopyridin-4-yl)oxy)pyridin-2-yl)-1,5-dimethyl-3-oxo-2-phenyl-2,3-dihydro-1H-pyrazole-4-carboxamide]: in series [3] (2 mg/kg), the “clearance (CL) after iv dosing” value was 0.5 mL/min/kg, the AUC(0-t) amounted to 69900 ng·h/mL, the half-life is 7.29 h and the Vd came to 0.22 L/kg. Besides, the F in series [3] (iv dose 2 mg/kg) stood at 59.7%. This compound yielded a Kd in series [4] of 25 nM. This compound had a Kd in series [5] of 20 nM. Further, in series [6] (6 mg/kg, 12 days), the “TGI % (on last day of dosing)” value is recorded as 26%. Besides, the “TGI % (on last day of dosing)” value in series [6] (20 mg/kg, 12 days) is listed as 56%. In addition, the “TGI % (on last day of dosing)” value in series [6] (60 mg/kg, 12 days) is recorded as 85%.

As for `Cc1c(C(=O)Nc2ccc(Oc3ccnc(N)c3Cl)cc2)c(=O)n(-c2ccccc2)n1C` [Ex. 2, N-(4-((2-amino-3-chloropyridin-4-yl)oxy)phenyl)-1,5-dimethyl-3-oxo-2-phenyl-2,3-dihydro-1H-pyrazole-4-carboxamide], in series [3] (1 mg/kg), the “clearance (CL) after iv dosing” value was 23.2 mL/min/kg, the AUC(0-t) was determined as 685 ng·h/mL, the half-life was 4.1 h and the Vd stood at 1.75 L/kg. For the same compound, the F in series [3] (iv dose 1 mg/kg) was 98.5%. Also, in series [4], the affinity, expressed as Kd, was 43 nM. For the same compound, the Kd in series [5] turned out to be 13 nM. Also, the “TGI % (on last day of dosing)” value in series [6] (6 mg/kg, 14 days) was determined as 29%. Besides, the “TGI % (on last day of dosing)” value in series [6] (20 mg/kg, 14 days) was 69%. Also, in series [6] (60 mg/kg, 14 days), the “TGI % (on last day of dosing)” value was found to be 82%.
